Laboratory results as given in US20140038896A1, “Retroelements and mental disorders and methods of measuring L1 retrotransposition” (Salk Institute for Biological Studies, priority 2009, published 2014).

What was measured:
[1] = tested on: MeCP2 and Sox2; assay: Co-immunoprecipitation between MeCP2 and Sox2; format: cell-based, rat; settings: in the presence of 5-Aza
Method: Immunofluorescence for EGFP was performed as previously described (11). A non-transgenic animal was used to measure the background fluorescence in the brain and to establish a threshold for detection. Western blotting was carried out using standard protocols with the following antibodies: mouse anti-Actin (1/500, Ambion), rabbit anti-MeCP2 (1/1000, Imgenex or Upstate), and rabbit anti-Sox2 (1/100, Chemicon). All secondary antibodies were purchased from Jackson ImmunoResearch. For co-immunoprecipitation, the Nuclear Complex Co-IP kit (Active Motif) was used, following the manufacturer's protocol with the highest stringency buffers.
(§1) Using chromatin immunoprecipitation (ChIP), high levels of MeCP2 were detected in association with the L1 promoter region (i.e., 5′UTR) in rat NSCs compared to differentiated neurons (FIG. 1F). To rule out differences in protein abundance that may differently influence ChIP amplification, western blot analysis was performed using lysates from cells that had undergone neuronal differentiation. […] Next, it was asked if releasing of MeCP2 from the methylated DNA would increase its association with Sox2 in solution. The Co-IP experiment in the presence of the 5-Aza was then repeated. […] It may be that both configurations can occur on the same L1 promoter region or each possibility is a L1 element sequence-dependent event.

[2] = tested on: endogenous rat L1 promoter region (5′UTR); assay: ChIP of MeCP2 and Sox2 on the endogenous rat L1 promoter region in NSCs; format: cell-based; settings: for MeCP2 ChIP signal / association to the L1 promoter region: 500 ng/ml for 4 days
Text: ChIP assay was done essentially following the manufacturer's protocol using a ChIP assay kit (Upstate). Antibodies used were anti-MeCP2 (Upstate), Sox2 (Chemicon), and IgG. Purified DNA was amplified by PCR using primers for the rat L1 5′UTR promoter region (L1.3, accession # X03095).
as §1

[3] = tested on: L1 5′UTR CpG islands; assay: Bisulfite analysis of L1 5′UTR DNA methylation in NSCs; format: cell-based, rat; settings: treatment for 4-days
Method: Genomic DNA from NSCs was isolated using standard phenol-chloroform extraction techniques. Subsequently, DNA was digested with the restriction enzyme EcoRI and the bisulfite conversion reaction was performed using the Epitect kit (Quiagen), following manufacturer's instructions. Primers were designed based on the rat L1 sequence Mlvi2, using Methyl Primer Express; primers for L1 converted 5′UTR region: forward 5-[…]-3′ (SEQ ID NO:1) and reverse 5′-[…]-3′ (SEQ ID NO:2). PCR products were cloned into TOPO TA 2.1 plasmids (Invitrogen) and 40 bacterial colonies were analyzed by sequencing.

## Nc1ncn([C@@H]2O[C@H](CO)[C@@H](O)[C@H]2O)c(=O)n1 [5-Azacytidine]
[1]
  amount of MeCP2 in association with Sox2 in solution (Co-IP): increased
[2]
  MeCP2 ChIP signal / association to the L1 promoter region: lost
[2]; listed as 5-Azacitidine
  MeCP2 ChIP signal / association to the L1 promoter region: reduced
[2]; 5-Aza treatment
  Sox2 binding to the L1 promoter: did riot prevent
[3]
  removal of methyl radicals from the 5′UTR L1 region (bisulfite): completely removed
